# Experimental data reported in patent EP2229935A1, “Peptide derivatives or pharmaceutically acceptable salts thereof, method for producing the same, use of said derivatives and pharmaceutical composition” (Nebolsin, Vladimir Evgenievich, priority 1997, dated 1999).
# Marks after values point to notes of the source that are not given here.
# What was measured:
# white mongrel male rats = assay: Carrageenan paw edema, cutaneous gel application (series 2); type: in vivo
# Procedure: Experiment was carried out on white mongrel male rats weighing 280-300 g. Carrageenan-induced edema was caused according to the method of Winter et al. [[inter et al. In: De Rosa M., Giroud J.P., Willoughby D.A. Studies of the mediators of the acute inflammatory reponse induced in rats in different sites by carrageenan and turpentine. […] Paw volume measurement was done using a plethysmograph (Ugo Basile) 1, 3 and 4 hours after carrageenan administration. Inhibition of inflammatory reaction expressed in percent, was calculated according to the formula: 100-[(R-L(exper.))/(L):(R-L(control))/(L)x100](%) [formula] where R - the right paw volume, L - the left paw volume.
# Series 2 of experiment. 2% carrageenan solution was injected sublaterally into paws of rats. In 1 minute 0.1 ml of gel comprising the test compounds were applied on the right paw. Gel base consisted of propylene glycol dissolved in the mixture of water and ethanol. Concentration of the compounds in the gel was 1%. Volume of paws was measured 4 hours after carrageenan administration.
# [1] = test system: Lewis pulmonary carcinoma (LLC); assay: Lewis pulmonary carcinoma spontaneous metastasizing, oral administration; type: in vivo; conditions: BDF1 female mice with LLC, oral 24 days; for Mean number of metastases: day 25
# Procedure: Each group included 15 animals. 0.3 ml of LLC tumor tissue suspension was intramuscularly injected to mice. Henks solution was used as a solvent. […] Moscow (1992) 13 pp.]. […]
# [C^14]-arachidonic acid = Metabolism of [C^14]-arachidonic acid in pulmonary tissue homogenate of treated mice; type: in vivo, CBA male mice; conditions: CBA mice lung homogenate; 50 µg/kg for three days
# Procedure: Studies were carried out on CBA male mice fed a standard vivarium ration. […] Then animals were sacrified, their lungs were taken out, frozen in liquid nitrogen, homogenized in a glass homogenizer manufactured by the Wheaton company (U.S.A.) at +4°C in 10 volumes 0.05 M Tris-HCl buffer. […] Densitometry of the autoradiochromatograms obtained on the X-ray films X-Omat AR (Kodak, U.S.A.) and HS 11 (ORWO, Germany) were performed on the KS 3 densiscan (Kipp and Zonnen, Holland). Quantative analysis of individual eucosanoids was carried out using radiometry of the fractions obtained with high performance liquid chromatography (the Gilson company HPLC-system, France; the Du Pont company ZORBAX C8 column, U.S.A.) and with elution of spots on TLC-plates.
# mongrel male mice = assay: Average lifetime of mice in a closed volume (hypoxia); type: in vivo
# Procedure: The tests of determining average lifetime of animals in a closed volume and on the model of acute hypobaric hypoxia at the minimum atmospheric rarefaction (170-185 mm Hg) were used to study antihypoxic activity of the compunds of general formula (I).
# Mice were one by one placed into sealed glass jars and their lifetime was recorded.
# The experiment was carried out on 90 mongrel male mice having initial body mass 20 ± 0,5 g housed in cages by 10 animals and given a standard vivarium ration. Average lifetime of mice in closed vessels having volume 250 ml was preliminarily determined and it was 22 to 25 minutes. All the groups included 10 animals each.
# Experimental protocol: • a) - preliminary hypoxia for 12 minutes; • b) - first administration of a compound immediately following preliminary hypoxia; • c) - second administration of a compound in 24 hours after the first one, then daily for three days; • d) - recording lifetime of animals under hypoxic conditions in a sealed space 2 hours after the last administration of a compound.
# The test compounds were dissolved in distilled water and orally administered to animals for 5 days.
# Experimental groups: • Group 1 -(control) - without preliminary hipoxia with oral administration of distilled water for 5 days; • Groups 2 and 3 - administration of the compound XLIV using two doses 50 and 500 µg respectively; • Group 4 - oral administration of sodium oxybutyrate at a dose […] 2 hours before hypoxia; • Group 5 -(control)- with preliminary hypoxia for 12 minutes with subsequent administration of distilled water for 5 days; • Groups 6 and 7 - administration of the compound XLIV using two doses 50 and 500 µg respectively; • Groups 8 and 9 - administration of the compound III using two doses 50 and 500 µg respectively.
# superoxide anion-radical = assay: Superoxide anion-radical formation in the xantine-xantine oxidase system (chemiluminescence); type: biochemical
# mongrel guinea-pigs = conditions: po, 0.05 mg/kg
# [2] = test system: Lewis pulmonary carcinoma (LLC); assay: Lewis pulmonary carcinoma growth; type: in vivo; conditions: mice with LLC, day 12
# Procedure: Experiments were carried out on male mice with initial body mass 18-20 g. Each group included 10 animals. […] Administration of compounds II, III, IX, X, XII, XIV, XV, XVI, XVII, XIX, XXII, XLVII in drinking water was commenced 24 hours following transplantation and continued till the end of experiment. Effect of the compounds on Lewis rat pulmonary carcinoma (LLC) was estimated by day 12 of experiment by change in tumor volume expressed in mm^3.
# [3] = test system: Lewis pulmonary carcinoma (LLC); assay: LLC metastasizing: compound III substance versus tabletted dosage form; type: in vivo, C57BL/6 female mice; conditions: C57BL/6 mice with LLC; oral 500 µg/kg (active basis) daily day 1-10; 24 days
# Procedure: To estimate therapeutic efficacy of compound III tabletted dosage form (0.2 g tablets 6 mm in diameter comprising 17 mg substance) studies were carried out on the model of spontaneous LLC carcinoma metastasizing.
# Experiments were carried out on C57BL/6 female mice weighing 20-25 g. Experimental groups included 8 animals and the control group 11 mice. Substance and dosage form of compound III were administered orally at a dose 500 µg/kg (at a rate per an active basis) daily from day 1 till day 10 of experiment. Experiment lasted for 24 days.
# mongrel male rats = assay: Hypolipidemic activity: experimental hyperlipidemia (atherogenic load); conditions: atherogenic diet, oral last four days, 50 µg/kg;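 further: serum drawn 18 h after the final dose from rats deprived of food over that interval, groups of 10 animals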
# [4] = with preliminary hypoxia 12 minutes, oral 5 days, 0,05 mg/kg
# [5] = with preliminary hypoxia 12 minutes, oral 5 days, 0,50 mg/kg
molecule,measurement,setting,value
"O=C(O)CCCC(=O)NCCc1c[nH]cn1 [compound III, N-GLUTARYLHISTAMINE]",Volume of paws (conditional units) Right,"white mongrel male rats; 0.1 ml of 1% gel on right paw, 4 hours after carrageenan",2.13 ± 0.64 conditional units
same,Volume of paws (conditional units) left,"white mongrel male rats; 1% gel group, left paw, 4 hours",1.83 ± 0.21 conditional units
same,Inflammation inhibition (%),"white mongrel male rats; 1% gel, 4 hours",60%
same,Volume increment,"white mongrel male rats; 1% gel, 4 hours",0.30 ±0.06*^l
same,Mean number of metastases,[1]; 50 µg/kg,38.5 ±6.3**^1
same,Mean number of metastases,[1]; 500 µg/kg,30.1 ± 2.7**^1
same,Metastasizing inhibition percent,[1]; 50 µg/kg,26.0%
same,Metastasizing inhibition percent,[1]; 500 µg/kg,42.0%
same,"5-HETE+HHT, percent of AA conversion",[C^14]-arachidonic acid,13.64 ± 0.26% of AA conversion
same,"6-keto-PGF1α, percent of AA conversion",[C^14]-arachidonic acid,7.95 ± 0.28% of AA conversion
same,"12-, 15-HETE, percent of AA conversion",[C^14]-arachidonic acid,23.82 ± 0.82% of AA conversion
same,"PGE2, percent of AA conversion",[C^14]-arachidonic acid,3.07 ± 0.11% of AA conversion
same,"PGF2α, percent of AA conversion",[C^14]-arachidonic acid,8.05 ± 0.15% of AA conversion
same,"Phospholipids, percent of AA conversion",[C^14]-arachidonic acid,7.41 ± 0.25% of AA conversion
same,"TXB2, percent of AA conversion",[C^14]-arachidonic acid,5.76 ± 0.24% of AA conversion
same,"Unmetabolized AA, percent of AA conversion",[C^14]-arachidonic acid,15.32 ± 1.56% of AA conversion
same,Lifetime (seconds),mongrel male mice; [4],"1670,6±25,3*^5 seconds"
same,Lifetime (seconds),mongrel male mice; [5],"1532,6±96,0 seconds"
same,Chemiluminiscence intensity (mV) + σn-1,"superoxide anion-radical; 0.1 mM, control of the series as in the table",5670 ± 379 mV
same,relative effect: 1+/I-,superoxide anion-radical; 1 mM,0.72
same,Chemiluminiscence intensity (mV) + σn-1,"superoxide anion-radical; 1 mM, control of the series 5616 ± 173, 5391 ± 195, 7290 ± 128 or 6776 ± 150",4027 ± 683 mV
same,Anaphylactic index,mongrel guinea-pigs,0.83*
same,Seizures in percent,mongrel guinea-pigs,"13,3* percent"
same,Growth inhibition percent,[2]; compound in drinking water,53%
same,Tumor volume (mm^3),[2]; compound in drinking water from 24 hours after transplantation,1249 ± 168** mm^3
same,Mean number of metastases,[3],22.5 ± 0.9
same,Metastasizing inhibition percent,[3],46.4%
same,Metastasizing rate in percent,[3],100%
same,Tumor mass,[3],12.9 ± 0.9 g
γ-L-glutamylhistamine [compound XLIV],Mean number of metastases,[1]; 50 µg/kg,42.4 ± 4.5
same,Mean number of metastases,[1]; 500 µg/kg,31.9 ± 3.8*^2
same,Metastasizing inhibition percent,[1]; 50 µg/kg,10.0%
same,Metastasizing inhibition percent,[1]; 500 µg/kg,32.0%
same,Lifetime (seconds),mongrel male mice; [4],"1415,5±47,2 seconds"
same,Lifetime (seconds),mongrel male mice; [5],"1844,8±93,2*^5 seconds"
same,Lifetime (seconds),"mongrel male mice; without preliminary hypoxia, oral 5 days, 0,05 mg/kg","2110,6±123,6**^1 seconds"
same,Lifetime (seconds),"mongrel male mice; without preliminary hypoxia, oral 5 days, 0,50 mg/kg","1742,8±68,1*^1 seconds"
same,HDL-CS,mongrel male rats; blood,"47,3±1,1***^A"
same,LDL-CS+ VLDL-CS,mongrel male rats; blood,"37,4±1,1***^A"
same,Total CS,mongrel male rats; blood,"84,7±3,0**^A"
same,Triglycerides,mongrel male rats; blood,"85,0±6,3***^A"
same,Kcs,mongrel male rats; cholesterol index,"0,79±0,02***^A"
